Experimental data reported in US20210062367A1, “METHOD FOR PRODUCING LIBRARY FOR USE IN PREDICTION OF ACTION OF SUBSTANCE OF INTEREST ON LIVING BODY, AND METHOD FOR […] OF SUBSTANCE OF INTEREST ON LIVING BODY BASED ON CHANGE IN ACTION PARAMETER OR THE LIKE OF ZEBRAFISH” (SUNTORY HOLDINGS LIMITED, priority 2017, published 2021).

Legend:
zebrafish [1] = assay: Zebrafish behavioral parameter measurement (Danio Vision/Ethovision) with cluster analysis against library of Suvorexant and Imipramine; format: in vivo, MieKomachi 002 Line 8 dpf; details: 8beta 10 μM; estimated from similarity to Suvorexant
Protocol: 0.3×Danieau's solution (19.3 mM NaCl, 0.23 mM KCl, 0.23 mM MgSO4, 0.2 mM Ca(NO3)2, 1.7 mM HEPES, pH 7.2) is used as a water bath, and a 0.1% DMSO-containing water bath is used.
Zebrafish is prepared by growing it under the following conditions to 8 dpf.
Zebrafish: MieKomachi 002 Line 8 dpf
For each substance of known action, the reagent in which the substance was dissolved in the water bath and adjusted at a concentration of 1 μM was prepared.
(1) Add 1 ml of the water bath to each well of a 48-well plate. Transfer one zebrafish (8 dpf) per well thereto and adjust the temperature to 28° C. and maintain the temperature for from 30 minutes to 1 hour. […]
(§1) The repetition of light and dark periods with cycled of a light period for 3 hours (period L1)—a dark period for 10 hours (period D)—a light period for 11 hours (period L2) is performed and the behavior of zebrafish is recorded for 24 hours. […]
(§2) For each class of mobility states, the indicators DMF, IZF, DTZ, and TA are measured. […]
(§3) (2) Store the measured behavioral parameters as raw data of the following forms. • Type of reagent (any of the reagents prepared in [Preparation of reagents for production of library] or control) • Mobility state (95 to 65 (high speed), 65 to 35 (moderate speed), or 35 to 05 (low speed)) • Repetition of light and dark periods (L1, D, or L2) • Indicator (DMF, IZF, DTZ, or TA) […]

nfi13-6 = assay: Zebrafish oligo-DNA microarray gene expression with cluster analysis together with behavioral data (8beta vs library); format: in vivo, MieKomachi 002 Line 8 dpf; details: 8beta 10 μM; nfi13-6 clusters with H-, M-, L-DMT D, L1, L2
Protocol: (5) Subsequently, link the administration of the substance of known action and the change in expression levels of genes using microarray experiments.
(§4) The microarray experiments can be performed using Zebrafish oligo-DNA micro array Ver.3.0 manufactured by Agilent Technologies, Inc. according to protocol.
Based on array data obtained by this microarray experiment, the normalization of the data in the arrays is performed in the procedure described above using software in Gene Springs.
(3) Link the administration of 8beta and the change in expression levels of genes using microarray experiments.
The microarray experiments can be performed using zebrafish oligo-DNA micro array Ver.3.0 manufactured by Agilent Technologies, Inc. according to protocol.
(§5) Based on array data obtained by this microarray experiment, the normalization of the data in the arrays is performed in the procedure described above using software in Gene Springs and data among arrays are normalized by a method using the Z score.
Processing of statistically matching and analyzing the numerical data for Suvorexant and Imipramine recorded in the library and the numerical data with the administration of 8beta was conducted by the cluster analysis as follows. […]

per1b = assay: Zebrafish oligo-DNA microarray gene expression with cluster analysis together with behavioral data (EGCG vs library); format: in vivo, Zebrafish (Danio rerio), AB Line 6 dpf; details: EGCG 0.003 mg/mL; per1b clusters with L-DMT D, L-DMT L1, L-DMT L2
Protocol: This can be done by citing array data of Diazepam (GSE23157) and Haloperidol (GSE89780) from a public DB (Geo Datasets).
Based on these array data, the normalization of the data in the arrays is performed in the procedure described above using software in Gene Springs and data among arrays are normalized by a method using the Z score.
(3) Link the administration of EGCG and the change in expression levels of genes using microarray experiments.
as §4, §5
Processing of statistically matching and analyzing the numerical data for Diazepam and Haloperidol recorded in the library and the numerical data with the administration of EGCG was conducted by the cluster analysis as follows.
In the result of cluster analysis including data of change in expression levels of genes, the action and mechanism of EGCG can be estimated based on the Gene Ontrogy (GO) information of the gene expression data by paying attention on data having high correlation between EGCG and Diazepam (data clustered in close relation). […]

zebrafish [2] = assay: Zebrafish behavioral parameter measurement (Danio Vision/Ethovision) with cluster analysis against library of Diazepam and Haloperidol; format: in vivo, Zebrafish (Danio rerio), AB Line 6 dpf; details: EGCG 0.003 mg/mL; estimated from similarity to Diazepam
Protocol: 0.3×Danieau's solution (19.3 mM NaCl, 0.23 mM KCl, 0.23 mM MgSO4, 0.2 mM Ca(NO3)2, 1.7 mM HEPES, pH 7.2) is used as a water bath.
Zebrafish is prepared by growing it under the following conditions to 6 dpf.
For each substance of known action, the reagent in which the substance was dissolved in the water bath and adjusted at a concentration of 10 μM was prepared.
(1) Add 1 ml of the water bath to each well of a 48-well plate. Transfer one zebrafish (6 dpf) per well thereto and adjust the temperature to 28° C. and maintain the temperature for from 30 minutes to 1 hour.
(2) Remove the liquid in the 48-well plate with a pipette and then add 1 ml/well of any of the reagents. […]
as §1, §2, §3

zebrafish [3] = details: modafinil given to zebrafish in bath; compared with ethanol; cited from earlier work

SMILES: C=C1C(=O)OC2C=C(C)CCC=C(C)CC(OC(=O)/C(C)=C/CO)C12 (stereo not drawn) [8beta, 8beta-(4′-hydroxytigloyloxy)costunolide]
- action estimated from closely related drug in cluster analysis (zebrafish [1]): sleep action
- gene expression data (nfi13-6), cluster analysis of change in expression levels (nfi13-6): change with correlation between 8beta and Suvorexant

SMILES: O=C(O[C@@H]1Cc2c(O)cc(O)cc2O[C@@H]1c1cc(O)c(O)c(O)c1)c1cc(O)c(O)c(O)c1 [EGCG, epigallocatechin gallate]
- gene expression data (per1b), cluster analysis of change in expression levels (per1b): change with correlation between EGCG and Diazepam
- action estimated from closely related drug in cluster analysis (zebrafish [2]): sedative action

SMILES: NC(=O)C[S+]([O-])C(c1ccccc1)c1ccccc1 (centres unmarked) [modafinil]
- action suggested by behavioral analysis of zebrafish (zebrafish [3]): antianxiety action
